According to US5427766A, “Radiolabeled steroids for use in radiochemical-guided surgery” (priority 1993, dated 1995):

Key:
Parameters in all cases: species or system athymic female NCR-Nu Mice
[1] = system: MDA-MB-231 (ER-) breast tumor xenografts; assay: In vivo biolocalization with gamma detecting probe, tumor/background ratio, MDA-MB-231 (ER-) tumor; details: mouse, in vivo
Method: (§1) In vivo biolocalization of 11β-ethyl-17α-(Z)-[^125 I](iodovinyl)estra-3,17β-diol (5) and a control compound 16α-[^125 I](iodovinyl)-3,17β-estradiol was determined in athymic female NCR-Nu Mice bearing subcutaneous MCF-7(ER+) breast tumor xenografts and MDA-MB-231 (ER-) breast tumor xenografts. The mice were at least 5 weeks old prior to injection into the right-hand flank with […] of MCF-7 breast carcinoma cells ([…]). One day prior to this procedure, the mice were implanted subcutaneously with a 1.7 mg estradiol pellet in the scapular region. Four to six weeks post-injection of the MCF-7 cells the estradiol pellet was removed and the mice inoculated in the left hind flank with 75 μL NDA-MB-231 breast tumor cells ([…]). Seven to ten days prior to injection of the test compounds, an estradiol pellet was again implanted in the scapular region. One to two days prior to injection of the test compounds, the estradiol pellet was removed, and 5 mice arbitrarily assigned to each test group.
(§2) The mice were each injected via tail vein with between 3 ([…]) and […] ([…]) 125 iodine in approximately […] of phosphate-buffered saline. At various time intervals after injection of the test compounds, each group of mice was anesthetized with methoxyflurane in order to measure the radioactivity over the ER+ and ER- tumors and the front leg for use as a background and the thoraxic area which served as a blood pool control using a gamma detecting probe (RIGS ^TM Model 1001 control unit, Neoprobe Corporation, Columbus, Ohio). Three 20 to 60 second counts were recorded at each area measured at each time point.
(§3) ^c Tu/Bkg = Mean(1-5) of (mean tumor countsn - mean foreleg
(§4) background countsn)/mean foreleg background

[2] = system: MCF-7 tumors located intraperitoneally; assay: In vivo localization (biodistribution) in athymic female nude mice bearing intraperitoneal MCF-7 tumors; details: for Percent Injected Dose/Gram, muscle: mouse, in vivo, ip
Method: (§5) In vivo localization of 11β-ethyl-17α-(Z)-[^125 I](iodovinyl)estra-3,17β-diol (5) and a control compound 16α-[^125 I]iodovinyl-3,17β-estradiol (commercially available from DuPont New England Nuclear, MA) was determined in athymic female NCR-Nu Mice (purchased from Simonsen Laboratories, Gilroy, Calif.) bearing subcutaneous MCF-7(ER+) breast tumor xenografts. Prior to injection of the compounds, the mice were each implanted with fragments of MCF-7 breast tumor (approximately 2 cubic millimeters) in the subcutis of the left flank. At approximately the same time, a 1.7 mg estradiol pellet (Innovative Research of America, Toledo, Ohio) was implanted in the scapular region. The tumors were allowed to grow until they reached between 50 and 200 mg by visual inspection (approximately four to five weeks) prior to injection of the test compounds. One day prior to injection of the test compounds, the estradiol pellet was removed.
(§6) The mice were each injected via tail vein with between 3 (1.1×10^5 Bq) and 6 μCi ([…]) ^125 I in approximately 50 μL of phosphate buffered saline. The mice were sacrificed at various time intervals. After exsanguination, the selected organ/tissue were excised, weighed and radioactivity measured in a gamma counter. The counts per minute (cpm) of 125I in each tissue was determined and expressed as cpm per gram of tissue per injected dose multiplied by 100 (percent injected dose/gram).
The procedure of Example 3 was followed except each mouse was inoculated intraperitoneally with MCF-7 breast carcinoma cell line (7.5×10^6 cell/50 μL) rather than implanted subcutaneously with MCF-7 breast tumor. One day prior to this procedure, a 1.7 mg estradiol pellet was implanted subcutaneously in the scapular region. The tumor cells were allowed to form solid tumor nodules for 4 to 6 weeks prior to injection of the test compounds.

[3] = system: MCF-7(ER+) breast tumor xenografts; assay: In vivo biolocalization with gamma detecting probe, tumor/background ratio, MCF-7 (ER+) tumor; details: mouse, in vivo
Method: as §1, §2, §3, §4

[4] = system: MCF-7(ER+) breast tumor xenografts; assay: In vivo localization (biodistribution) in athymic female nude mice bearing subcutaneous MCF-7 tumor xenografts
Method: as §5, §6

## CC[C@H]1C[C@@]2(C)[C@@H](CC[C@@]2(O)/C=C\[125I])[C@@H]2CCc3cc(O)ccc3[C@@H]12 [Compound 5, 11β-ethyl-17α-(Z)-[^125 I](iodovinyl)estra-3,17β-diol]
[1]
  Tumor/Background Ratio (Tu/Bkg): 2.44 ± 1.83
[1]; 120 min
  Tumor/Background Ratio (Tu/Bkg): 4.34 ± 1.37
[1]; 360 min
  Tumor/Background Ratio (Tu/Bkg): 4.44 ± 2.62
[1]; 1440 min
  Tumor/Background Ratio (Tu/Bkg): 0.87 ± 0.54
[1]; 2880 min
  Tumor/Background Ratio (Tu/Bkg): 0.03 ± 0.34
[2]; 48 hours post-injection, uteri and tumors, intraperitoneal MCF-7
  radioactivity in the uteri and tumors: still contain a significant amount of radioactivity
[2]; Fat, 48 hours, tail vein, intraperitoneal MCF-7, mean, n = 5
  Percent Injected Dose/Gram, fat: 0.00 Percent Injected Dose/Gram
[2]; intraperitoneal MCF-7, conclusion in words
  binding affinity in vivo with retention of the targeted-site: high binding affinity in vivo with retention of the targeted-site
[2]; 1440 min
  Percent Injected Dose/Gram, muscle: 0.00 Percent Injected Dose/Gram
[2]; 2880 min
  Percent Injected Dose/Gram, muscle: 0.00 Percent Injected Dose/Gram
[3]
  Tumor/Background Ratio (Tu/Bkg): 4.70 ± 1.85
  tumor to background ratios (in words): good tumor to background ratios
  tumor to background ratios / localization at the tumor site (in words): maintained a high tumor to background ratios
[3]; 120 min
  Tumor/Background Ratio (Tu/Bkg): 4.74 ± 2.04
[3]; 360 min
  Tumor/Background Ratio (Tu/Bkg): 7.32 ± 0.60
[3]; 1440 min
  Tumor/Background Ratio (Tu/Bkg): 3.53 ± 1.30
[3]; 2880 min
  Tumor/Background Ratio (Tu/Bkg): 1.79 ± 1.23
[4]; 48 hours post-injection, uteri and tumors, subcutaneous MCF-7
  radioactivity in the uteri and tumors: still contain a significant amount of radioactivity
[4]; Fat, 48 hours, tail vein, subcutaneous MCF-7, mean, n = 5
  Percent Injected Dose/Gram, fat: 0.00 Percent Injected Dose/Gram
[4]; 24 hours, tail vein, subcutaneous MCF-7, mean, n = 5
  Percent Injected Dose/Gram, muscle: 0.00 Percent Injected Dose/Gram
[4]; 48 hours, tail vein, subcutaneous MCF-7, mean, n = 5
  Percent Injected Dose/Gram, muscle: 0.00 Percent Injected Dose/Gram
[4]; subcutaneous MCF-7, conclusion in words
  binding affinity in vivo with retention of the targeted-site: high binding affinity in vivo with retention of the targeted-site
